Measurements as given in patent US20050250826A1, “Compounds, compositions, processes of making, and methods of use related to inhibiting macrophage migration inhibitory factor” (priority 2004, published 2005).

Tests used:
[1] = tested on: carageenin-induced edema; conditions: rat paw; compared to parent compound unsubstituted in the para position of the phenyl ring; Curuzu et al. 1991; cited from earlier work
[2] = molecular target: T1, recombinant human MIF (Homo sapiens, UniProt P14174); experiment: MIF dopachrome tautomerase assay; assay type: biochemical; conditions: dose-dependent inhibition
T1 construct: made in house; host or cells: E. coli
T1 sequence (P14174 2-115 limits assumed): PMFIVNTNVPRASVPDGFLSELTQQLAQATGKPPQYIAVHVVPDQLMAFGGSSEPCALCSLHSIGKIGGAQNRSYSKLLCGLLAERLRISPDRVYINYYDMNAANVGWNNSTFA
Description: The compounds of Formula I or II are identified as MIF inhibitors because they inhibit MIF enzymatic activity in vitro. […] This reaction predicts therapeutic MIF inhibitors (see U.S. Pat. No. 6,420,188 and U.S. Pat. No. 6,599,938, the disclosures of which are incorporated herein by reference in their entirety). Inhibition of MIF tautomerase activity is predictive of inhibition of MIF biological activity.
A method for performing an assay for MIF dopachrome tautomerase activity begins with the preparation and oxidation of a DOPA-related substrate precursor, such as L-3,4-dihydroxyphenylalanine methyl ester. […] The absorbance is measured at about 475 nm (or 550 nm for substrate concentrations in excess […]). A test compound may be included in the assay solution such that the effect of the test compound on MIF tautomerase activity (i.e., as an inhibitor) may be measured by noting the change in kinetics of substrate tautomerization compared to control assays performed in the absence of the test inhibitor compound. […]
L-3,4-dihydroxyphenylalanine methyl ester (e.g., Sigma D-1507) is a dopachrome substrate precursor, and is prepared as a 4 mM solution in dd H2O Sodium periodate is prepared as an 8 mM solution in dd H2O. […] Inhibition of MIF tautomerase activity by the test compounds is determined by inhibition of the de-colorization of the assay mixture, often at the 20 sec time point. […]

IC50 [2] | SMILES | anti-inflammatory activity [1] | further results
~10 µM | O=C(CC1CC(c2ccc(O)cc2)=NO1)N1CCCC1 (centres unmarked) [Compound 68] | – | –
~10 µM | O=C(CC1CC(c2ccc(O)cc2)=NO1)N1CCOCC1 (centres unmarked) [Compound 69] | – | –

The next lines start with the molecule.

SMILES | IC50 [2] | anti-inflammatory activity [1] | further results
CCOC(=O)C(C)CC1CC(c2ccc(O)cc2)=NO1 (centres unmarked) [Compound 32] | – | – | melting point: 192 to 194 °C
COc1ccc(C2=NOC(CC(=O)O)C2)cc1 (centres unmarked) [3-(4-methoxyphenyl)-4,5-dihydro-5-isoxazolineacetic acid] | – | dramatically reduced | –
O=C(O)CC1CC(c2ccc(O)cc2)=NO1 (centres unmarked) [3-(4-hydroxyphenyl)-4,5-dihydro-5-isoxazolineacetic acid] | – | devoid of anti-inflammatory activity | –
